Values after ≈ are worked out from the molar mass of the structure shown.

The values below come from PubChem BioAssay AID1996.

The conditions of this data set: buffer; pH 7.4; 200.0 µM.
As to `Cc1ccc(Nc2cc(=O)[nH]c(=O)[nH]2)cc1Cl`, the solubility (kinetic) amounted to 2 µg/mL (≈ 7.95 µM).

Consider `CCOC(=O)c1cc(C)nc(S(C)(=O)=O)c1C#N`, for which the solubility (kinetic) was 28.3 µg/mL (≈ 105 µM). Against the preceding molecule, the solubility kinetic is about 14-fold higher.

As for `CCCc1cc(=O)[nH]c(SCC(=O)Nc2ccc(Br)cc2)n1`, the solubility (kinetic) amounted to 1.1 µg/mL (≈ 2.88 µM).

As to `CCOC(=O)c1cn2nc(Oc3ccccc3)ccc2n1`, the kinetic solubility was more than 42.5 µg/mL.

On to `COc1ccc(NC(=O)Nc2ccc(F)cc2)cn1`, for which the solubility (kinetic) was more than 39.2 µg/mL.

For `CN(Cc1ccccc1)C(=O)Cc1ccccc1`, the kinetic solubility came out at 35.5 µg/mL (≈ 148 µM).

Molecule `CCN(C(=O)c1ccc2c(c1)OCO2)C12CC3CC(CC(C3)C1)C2` showed a solubility (kinetic) of 4 µg/mL (≈ 12.2 µM).

The molecule `Cn1cccc1C(=O)NCC(c1ccc(F)cc1)N1CCOCC1` (configuration not stated) showed a kinetic solubility of 47.3 µg/mL (≈ 143 µM).

The molecule `CC(C)(C)CC(C)(C)NC(=O)c1ccccc1` showed a solubility (kinetic) of more than 35 µg/mL.

`Cc1cccc(N2CCN(C(=O)c3ccc4ccccc4c3)CC2C)c1` (configuration not stated): the kinetic solubility is 7.4 µg/mL (≈ 21.5 µM).

The molecule `CCc1ccccc1NC(=O)c1ccc(OCc2c(C)noc2C)cc1` yielded a solubility (kinetic) of 3.7 µg/mL (≈ 10.6 µM). This solubility kinetic lies about 2-fold lower than the previous one.

Regarding `Cc1ccc(NC(=O)C(=O)NCCc2c[nH]c3ccccc23)c(C)c1`, the solubility (kinetic) worked out at 0.4 µg/mL (≈ 1.19 µM). This solubility kinetic is about 9.2-fold lower than that of the molecule before.

Regarding `Cc1cc(NC(=O)COc2ccc(C)c(C)c2)no1`, the kinetic solubility worked out at 0.7 µg/mL (≈ 2.69 µM).

As to `C=CCN1C(=O)c2ccc(C(=O)Nc3ccccn3)cc2C1=O`, the kinetic solubility was 8 µg/mL (≈ 26 µM).

For `COc1ccc(C(=O)NCCCNC(=O)c2cnccn2)cc1`, the kinetic solubility was 42.8 µg/mL (≈ 136 µM). Against the preceding molecule, the solubility kinetic is about 5.3-fold higher.

`Cc1ccc(SCCCCN2CCOCC2)cc1.Cl` registered a solubility (kinetic) of more than 45.3 µg/mL.

For `COc1ccc(C(C)NC(=O)C23CC4CC(CC(C4)C2)C3)cc1OC` (configuration not stated), the solubility (kinetic) was found to be 40.2 µg/mL (≈ 117 µM).

Regarding `O=Nc1c(O)n(Cc2ccccc2)c2ccccc12`, the solubility (kinetic) was more than 37.8 µg/mL.

Turning to `Cc1cc(C)c(C)c(S(=O)(=O)N(C)CCc2ccccn2)c1C`, the kinetic solubility was more than 49.9 µg/mL.

Take `NS(=O)(=O)c1ccc(SCc2ccccc2)nc1`: the kinetic solubility amounted to 10.4 µg/mL (≈ 37.1 µM).

In the case of `O=C(Nc1ccc(F)cc1)c1cccc2ccccc12`, the kinetic solubility was less than 0.6 µg/mL.

`Cc1cc(=O)oc2c(CN3CCCC3)c(O)c(Cl)cc12` registered a kinetic solubility of more than 44.1 µg/mL.

The molecule `CC1CCN(C(=O)CCCC(=O)N2CCC(C)CC2)CC1` returned a kinetic solubility of more than 44.2 µg/mL.

Regarding `CCOC(=O)N1CCN(C(=O)CSc2nc3nc(C)cc(C)n3n2)CC1`, the kinetic solubility was more than 56.8 µg/mL.

Turning to `COc1ccc(Oc2ncccc2NC(=O)c2cccc(C)c2C)cc1`, the kinetic solubility worked out at 5.9 µg/mL (≈ 16.9 µM).

Take `O=C(c1cccc([N+](=O)[O-])c1)c1ccc2c(c1)C(=O)NC2=O`: the solubility (kinetic) amounted to 6.3 µg/mL (≈ 21.3 µM).

For the molecule `COc1ccc(OC)c(NC(=O)COC(=O)/C=C/c2ccco2)c1`, the kinetic solubility was 10.4 µg/mL (≈ 31.4 µM).

For the molecule `COc1cc(N)ccc1NC(=O)c1cc2ccccc2o1`, the solubility (kinetic) is more than 42.3 µg/mL.

With `CC(=O)N1CCN(CCS(=O)(=O)c2cc(Cl)ccc2Cl)CC1`, the solubility (kinetic) was more than 54.8 µg/mL.

In turn, `O=S(=O)(Nc1nc2ccc(Cl)cc2s1)c1cccs1` returned a solubility (kinetic) of 12.2 µg/mL (≈ 36.9 µM).

For `CC(C(=O)O)c1ccc2c(c1)[nH]c1ccc(Cl)cc12` (configuration not stated), the solubility (kinetic) is more than 41.1 µg/mL.

Molecule `CCCCOP(=O)(c1ccc(N(C)C)cc1)C(O)c1ccc(N(C)C)cc1` (configuration not stated) registered a kinetic solubility of more than 58.6 µg/mL.

Take `O=C(O)CC/C(=N/NC(=O)CNC(=O)Cc1ccccc1)c1ccccc1`: the kinetic solubility was more than 55.1 µg/mL.

As for `Cc1cc(/C=C(\C#N)C(=O)N2CCOCC2)c(C)n1C1CCCC1`, the kinetic solubility is 32.9 µg/mL (≈ 100 µM).

Molecule `COc1ccc(CN(C)C(=S)Nc2ccc(Cl)cc2)cc1` came in with a solubility (kinetic) of 13.5 µg/mL (≈ 42.1 µM).

The molecule `COC(=O)c1ccccc1NC(=S)N(C)C` displayed a kinetic solubility of 34.2 µg/mL (≈ 144 µM).

For the molecule `COc1ccc(OCC(=O)Nc2ccccc2Cl)cc1`, the solubility (kinetic) is 4.5 µg/mL (≈ 15.4 µM).

Molecule `COc1ccc(S(=O)(=O)NC2CCCCCC2)c(OC)c1` displayed a solubility (kinetic) of 9.4 µg/mL (≈ 30 µM).

With `CCOc1ccc(N2C(=O)NC(=O)/C(=C\c3ccccc3[N+](=O)[O-])C2=O)cc1`, the kinetic solubility is more than 57.2 µg/mL.

In turn, `Cc1ccc(OCCn2cnc3c2c(=O)n(C)c(=O)n3C)cc1` returned a kinetic solubility of 6.3 µg/mL (≈ 20 µM).

`CSCCC(NC(=O)c1ccco1)C(=O)NNC(=O)c1n[nH]c(=O)c2ccccc12` (configuration not stated) registered a solubility (kinetic) of more than 64.4 µg/mL.

In turn, `COc1ccc(NC(=O)c2cc3cc(OC)ccc3oc2=O)cc1` returned a solubility (kinetic) of less than 0.7 µg/mL.

The molecule `CCCCNC(=O)Cn1nc(Cc2ccncc2)c2ccccc2c1=O` returned a solubility (kinetic) of more than 52.6 µg/mL.

In turn, `CCOc1ccc(C(=O)NCc2ccco2)cc1OCC` registered a kinetic solubility of 22.5 µg/mL (≈ 77.8 µM).

Consider `COc1ccc(NC(=O)c2cncn2-c2ccccc2)cc1`, for which the kinetic solubility amounted to 42.6 µg/mL (≈ 145 µM). This solubility kinetic lies about 1.9-fold higher than the previous one.

In the case of `CC(NC(=O)COC(=O)c1ccc(N2CCCC2=O)cc1)c1ccc(F)cc1` (configuration not stated), the kinetic solubility was determined as 8.2 µg/mL (≈ 21.3 µM). This solubility kinetic lies about 5.2-fold lower than the previous one.

With `CC(=O)c1c(C)[nH]c(C(=O)Nc2ccc(C)cc2Br)c1C`, the kinetic solubility stood at 0.8 µg/mL (≈ 2.29 µM).

On to `Cc1c(C(=O)c2ccccc2)c2ccccn2c1CCc1ccccn1`, for which the kinetic solubility is 3.7 µg/mL (≈ 10.9 µM).

The molecule `CCC(NC(=O)C1CCCO1)c1ccccc1` (configuration not stated) returned a solubility (kinetic) of more than 35 µg/mL.

`O=C(COc1ccccc1)NCC(=O)NC1CCCCC1` returned a kinetic solubility of more than 43.6 µg/mL.

`O=C(COC(=O)c1cccs1)Nc1cccc(Cl)c1` came in with a kinetic solubility of 7.6 µg/mL (≈ 25.7 µM).

Regarding `CCn1cc(C=C2C(=O)N(C)C(=O)N(C)C2=O)c2ccccc21`, the kinetic solubility was 1 µg/mL (≈ 3.21 µM). Compared with the last molecule, the solubility kinetic is about 7.6-fold lower.

In general, solubility (kinetic) refers to the concentration staying in solution when a stock, usually in DMSO, is diluted into the medium.
